The test system of series [1] is carrageenin induced edema of the rats paw. Kind of series: Rat's paw test with carrageenin induced edema (amputation method). The settings on record: 30 minutes before carrageenin, paws weighed 3 hours after carrageenin, read-out: Rat's paw test with carrageenin induced edema, checking (% inhibition). Type of series: in vivo. As to the method: As a determination of the suitability of the compounds for preventing the inflammation caused by sunburn, a variation of the rats paw test was used, namely the so-called amputation method was used, which is described by C. H. Winter in the Journal of Pharmacology and Experimental Therapeutics 141, p.369 (1963). In the experiments, Carrageenin is used as the substance causing inflammation.
While only the Carrageenin solution was administered to the control animals, the test animals were given the different test substances by injection or by administration per os in the amount given in Table I below, 30 minutes before its injection with the Carrageenin solution. The test animals were killed 3 hours after the injection of the carrageenin solution causing the inflammation, and the weight of the paws was determined. The inhibiting of the development of the edema of the rats paws after the subplantar injection of the compound checking inflammation was used as an index of the degree of activity and was expressed in % inhibition.
On the basis of general practice, the results of the rats paw test serve as a base for the evaluation of a compound as a sunburn control agent.
(In general: In the carrageenan paw model, swelling and tenderness develop within hours.)

Series [2] can be described thus: Orienting toxicity test, LD 50. The conditions noted are these: in vivo. As to the method:
In the following experiments listed below the cyclic 2-furfural-acetals to be used according to the invention were tested for their anti-inflammatoryproperties. First an orienting experiment was carried out to determine their toxicity, in order to be able to determine the test dosages for the further experiments.

A short description of series [3]: UV-spectrum, absorption maxima. It is filed as physicochemical. An excerpt:
In addition, the absorption maxima of the test substances in the ultraviolet region are given in the following Table I. Since with some of the test substances the absorption maxima lie conveniently in the ultraviolet region producing erythema, which extends from 280 to 320 mμ these, besides their inflammation-preventing action as sunburn control substances, show themselves simultaneously as useful means for protection from the sun.

Molecules are shown by their SMILES. Read-outs that look alike come from different tables or passages of the source.

The term LD50 denotes the dose at which mortality reaches 50%. A high value points to lower toxicity. Turning to `CCCCCCC1COC(c2ccc([N+](=O)[O-])o2)O1` (centres unmarked) [Compound T, 2-(5'-nitrofuryl-2')-4-n-hexyl-1,3-dioxolane], the inhibition in vivo at 1000 mg/kg in series [1] (po, 1000 mgm/kg p.o.) came to 12.8%. In series [2], this compound yielded an LD50 of 1000 mg/kg.
On to `CCCCCCCCCCCCC1COC(c2ccc([N+](=O)[O-])o2)O1` (centres unmarked) [Compound M, 2-(5'-nitrofuryl-2')-4-dodecyl-1,3-dioxolane], for which the inhibition in vivo at 1000 mg/kg in series [1] (ip, 1000 mgm/kg i.p.) was 18.3%. The compound further came in with an LD50 in series [2] of 1000 mg/kg.
As to `Cc1ccc(C2OCC(C)(C)C(C(C)C)O2)o1` (centres unmarked) [Compound H, 2-(5'-methylfuryl-2')-4-isopropyl-5,5-dimethyl-1,3-dioxane], in series [3], the “UV-spectrum λ-max” value turned out to be 300 mμ and the “UV-spectrum logε at λ-max” value is given as 2.08. Further, in series [1] (po, 1000 mgm/kg p.o.), the inhibition in vivo at 1000 mg/kg turned out to be 50%. For the same compound, the LD50 in series [2] worked out at 1000 mg/kg.
Regarding `O=[N+]([O-])c1ccc(C2OCCO2)o1` [Compound A, 2-(5'-Nitrofuryl-2')-1,3-dioxolane], in series [3], the “UV-spectrum λ-max” value is recorded as 302 mμ and the “UV-spectrum logε at λ-max” value is recorded as 4.02. In series [1] (po, 500 mgm/kg p.o.), the inhibition in vivo at 500 mg/kg is 16.2%. In series [2], this compound displayed an LD50 of 810 mg/kg.
With `O=[N+]([O-])c1ccc(C2OC3CCCCC3O2)o1` (centres unmarked) [Compound E, 2-(5'-nitrofuryl-2')-4,5-tetramethylene-1,3-dioxolane], in series [3], the “UV-spectrum λ-max” value was 305 mμ and the “UV-spectrum logε at λ-max” value turned out to be 4.01. The inhibition in vivo at 500 mg/kg in series [1] (po, 500 mgm/kg p.o.) was 17.7%. The compound further showed an LD50 in series [2] of 1000 mg/kg.
As to `O=[N+]([O-])c1ccc(C2OCCCCO2)o1` [Compound B, 2-(5'-nitrofuryl-2')-1,3-dioxepane], in series [1] (po, 500 mgm/kg p.o.), the inhibition in vivo at 500 mg/kg was 12.3%. This compound also showed a 50% lethal dose (LD50) in series [2] of 1750 mg/kg.
For the compound `CC1CCOC(c2ccc([N+](=O)[O-])o2)O1` (centres unmarked) [Compound X, 2-(5'-nitrofuryl-2')-4-methyl-1,3-dioxane], in series [3], the “UV-spectrum λ-max” value came out at 303 mμ and the “UV-spectrum logε at λ-max” value is listed as 3.87. The inhibition in vivo at 500 mg/kg in series [1] (po, 500 mgm/kg p.o.) turned out to be 12.1%. Besides, the LD50 in series [2] was determined as 750 mg/kg.
With `CCCC1(C)COC(c2ccc([N+](=O)[O-])o2)OC1` (centres unmarked) [Compound C, 2-(5'-nitrofuryl-2')-5-methyl-5-propyl-1,3-dioxane], in series [3], the “UV-spectrum λ-max” value was found to be 302 mμ and the “UV-spectrum logε at λ-max” value worked out at 3.98. Also, the inhibition in vivo at 250 mg/kg in series [1] (po, 250 mgm/kg p.o.) turned out to be 16.5%. Also, in series [2], the LD50 was determined as 300 mg/kg.
`CCCCC1COC(c2ccc([N+](=O)[O-])o2)O1` (centres unmarked) [Compound S, 2-(5'-nitrofuryl-2')-4-n-butyl-1,3-dioxolane]: the inhibition in vivo at 500 mg/kg in series [1] (ip, 500 mgm/kg i.p.) stood at 10.6%. This compound also yielded an LD50 in series [2] of 810 mg/kg.
`CCCCCCCCCCC1COC(c2ccc([N+](=O)[O-])o2)O1` (centres unmarked) [Compound V, 2-(5'-nitrofuryl-2')-4-n-decyl-1,3-dioxolane]: in series [1] (po, 1000 mgm/kg p.o.), the inhibition in vivo at 1000 mg/kg was 18.3%. In series [2], the LD50 came to 1000 mg/kg.
In the case of `CCCCCCCCC1COC(c2ccc([N+](=O)[O-])o2)O1` (centres unmarked) [Compound U, 2-(5'-nitrofuryl-2')-4-n-octyl-1,3-dioxolane], the inhibition in vivo at 250 mg/kg in series [1] (ip, 250 mgm/kg i.p.) amounted to 17%. Besides, the LD50 in series [2] stood at 5000 mg/kg.
As to `CC(C)C1OC(c2ccc([N+](=O)[O-])o2)OCC1(C)C` (centres unmarked) [Compound Q, 2-(5'-nitrofuryl-2')-4-isopropyl-5,5-dimethyl-1,3-dioxane], in series [3], the “UV-spectrum λ-max” value is listed as 301 mμ and the “UV-spectrum logε at λ-max” value is 4.07. In addition, in series [1] (po, 750 mgm/kg p.o.), the inhibition in vivo at 750 mg/kg came out at 34.1%. The compound further returned an LD50 in series [2] of 1750 mg/kg.
In the case of `CCCCCCCCCCCCCCCCC1COC(c2ccc([N+](=O)[O-])o2)O1` (centres unmarked) [Compound O, 2-(5'-nitrofuryl-2')-4-hexadecyl-1,3-dioxolane], in series [1] (ip, 250 mgm/kg i.p.), the inhibition in vivo at 250 mg/kg stood at 29.6%. The same compound displayed an LD50 in series [2] of 2500 mg/kg.
As to `c1coc(C2OC3CCCCC3O2)c1` (centres unmarked) [Compound Y, 2-(Furyl-2')-4,5-tetramethylene-1,3-dioxolane], the inhibition in vivo at 250 mg/kg in series [1] (po, 250 mgm/kg p.o.) was found to be 32.3%. In series [2], this compound yielded an LD50 of 300 mg/kg.
With `CC(C)C1OC(c2ccco2)OCC1(C)C` (centres unmarked) [Compound F, 2-(furyl-2')-4-isopropyl-5,5-dimethyl-1,3-dioxane], in series [3], the “UV-spectrum λ-max” value came out at 300 mμ and the “UV-spectrum logε at λ-max” value was found to be 2.35. The inhibition in vivo at 250 mg/kg in series [1] (po, 250 mgm/kg p.o.) came to 48.4%. This compound yielded an LD50 in series [2] of 300 mg/kg.
Consider `CC1(C)OC(c2ccc([N+](=O)[O-])o2)OC1(C)C` [Compound D, 2-(5'-nitrofuryl-2')-4,4,5,5-tetramethyl-1,3-dioxolane], for which, in series [3], the “UV-spectrum λ-max” value came out at 303 mμ and the “UV-spectrum logε at λ-max” value is 4.01. For the same compound, in series [1] (po, 500 mgm/kg p.o.), the inhibition in vivo at 500 mg/kg came to 16.5%. Besides, the LD50 in series [2] stood at 810 mg/kg.
With `O=[N+]([O-])c1ccc(C2OCCCO2)o1` [Compound W, 2-(5'-nitrofuryl-2')-1,3-dioxane], in series [3], the “UV-spectrum λ-max” value is 303 mμ and the “UV-spectrum logε at λ-max” value is 3.79. Moreover, the inhibition in vivo at 500 mg/kg in series [1] (po, 500 mgm/kg p.o.) came out at 16.9%. For the same compound, in series [2], the LD50 was 750 mg/kg.
As for `CC1OC(c2ccc([N+](=O)[O-])o2)OC(C)C1C` (centres unmarked) [Compound K, 2-(5'-Nitrofuryl-2')-4,5,6-trimethyl-1,3-dioxane], in series [3], the “UV-spectrum λ-max” value was found to be 303 mμ and the “UV-spectrum logε at λ-max” value was 3.76. Further, the inhibition in vivo at 250 mg/kg in series [1] (po, 250 mgm/kg p.o.) worked out at 30.8%. The compound further registered an LD50 in series [2] of 690 mg/kg.
Turning to `CC1OC(c2ccco2)OC1C` (centres unmarked) [Compound G, 2-(furyl-2')-4,5-dimethyl-1,3-dioxolane], in series [3], the “UV-spectrum λ-max” value worked out at 300 mμ and the “UV-spectrum logε at λ-max” value turned out to be 2.13. In addition, the inhibition in vivo at 250 mg/kg in series [1] (po, 250 mgm/kg p.o.) worked out at 14.5%. For the same compound, the LD50 in series [2] was determined as 300 mg/kg.
`CC1CC(C)(C)OC(c2ccc([N+](=O)[O-])o2)O1` (centres unmarked) [Compound L, 2-(5'-nitrofuryl-2')-4,4,6-trimethyl-1,3-dioxane]: in series [3], the “UV-spectrum λ-max” value was 304 mμ and the “UV-spectrum logε at λ-max” value is given as 4.01. Further, in series [1] (po, 500 mgm/kg p.o.), the inhibition in vivo at 500 mg/kg was 21.9%. For the same compound, the LD50 in series [2] worked out at 1130 mg/kg.
Take `Cc1ccc(C2OC(C)C(C)O2)o1` (centres unmarked) [Compound J, 2-(5'-methylfuryl-2')-4,5-dimethyl-1,3-dioxolane]: in series [3], the “UV-spectrum λ-max” value amounted to 300 mμ and the “UV-spectrum logε at λ-max” value is recorded as 1.96. In addition, in series [1] (po, 1000 mgm/kg p.o.), the inhibition in vivo at 1000 mg/kg came to 48.4%. The LD50 in series [2] came to 1000 mg/kg.
As for `CCCCCCCCCCCCCCC1COC(c2ccc([N+](=O)[O-])o2)O1` (centres unmarked) [Compound N, 2-(5'-nitrofuryl-2')-4-tetradecyl-1,3-dioxolane], in series [1] (ip, 1000 mgm/kg i.p.), the inhibition in vivo at 1000 mg/kg amounted to 10.5%. This compound also had an LD50 in series [2] of 1000 mg/kg.
Consider `CC1COC(c2ccc([N+](=O)[O-])o2)O1` (centres unmarked) [Compound R, 2-(5'-nitrofuryl-2')-4-methyl-1,3-dioxolane], for which, in series [3], the “UV-spectrum λ-max” value was found to be 303 mμ and the “UV-spectrum logε at λ-max” value is given as 3.84. Also, in series [1] (ip, 50 mgm/kg i.p.), the inhibition in vivo at 50 mg/kg amounted to 36.6%. Moreover, the LD50 in series [2] worked out at 750 mg/kg.

The record behind these values is patent US3987189A, “Anti-inflammatory composition and method containing cyclic 2-furfural-acetals” (Henkel & Cie G.m.b.H., priority 1973, dated 1976).
